Assay results taken from patent US20080076824A1, “Compounds That Inhibit Replication Of Human Immunodeficiency Virus” (priority 2004, published 2008).
Read-outs that look alike come from different tables or passages of the source. Residues, ends and D or L forms follow the SMILES beside them.

Columns and labels:
[1] = test system: HIV-1 (NL4.3); conditions: read-out: EC50 HIV-1 NL3.4; CEM cell cultures, syncytia formation
Description: (§1) Human T-lymphocytic CEM cells (4.5×10^5 cells per ml) were suspended in fresh cell culture medium and infected with HIV-1 (IIIB and NL4.3) or HIV-2 (ROD or EHO) at 100 CCID50 (1 CCID50 being the virus dose infective for 50% of the cell cultures) per ml of cell suspension. Then, 100 μl of the infected cell suspension were transferred to microplate wells, mixed with 100 μl of appropriate (freshly prepared) dilutions of the test compounds (i.e., at final concentrations of […]), and were further incubated at 37° C. After 4 to 5 days, giant cell formation was recorded microscopically in the CEM cell cultures.

[2] = test system: HIV-2 (EHO); conditions: read-out: EC50 HIV-2 EHO; CEM cell cultures, syncytia formation
Description: as §1

[3] = test system: Coxsackie virus B4; assay: Antiviral activity in Vero cell cultures, Coxsackie virus B4; assay type: cell-based; conditions: reduces virus-induced cytopathogenicity by 50%, read-out: Minimum inhibitory concentration Coxsackie virus B4
Description: The cytotoxicity and antiviral activity of various concentrations of G-NH2 and GPG-NH2 were evaluated in cell cultures that were infected with various types of viruses. Conventional host cell culture, viral infection, and infectivity analysis for each different type of cell and virus were followed. Compounds that were known to inhibit replication of the particular types of viruses analyzed were used as controls.

[4] = test system: Herpes simplex virus-1 (KOS); conditions: read-out: Minimum inhibitory concentration Herpes simplex virus-1 (KOS); HEL; reduces virus-induced cytopathogenicity by 50%
[5] = test system: Vaccinia virus; conditions: read-out: Minimum inhibitory concentration Vaccinia virus; HEL; reduces virus-induced cytopathogenicity by 50%
[6] = test system: Vesicular stomatitis virus; conditions: read-out: Minimum inhibitory concentration Vesicular stomatitis virus; HEL; reduces virus-induced cytopathogenicity by 50%
[7] = test system: Vesicular stomatitis virus; conditions: read-out: Minimum inhibitory concentration Vesicular stomatitis virus; HeLa; reduces virus-induced cytopathogenicity by 50%
[8] = test system: Respiratory syncytial virus; conditions: read-out: Minimum inhibitory concentration Respiratory syncytial virus; HeLa; reduces virus-induced cytopathogenicity by 50%
[9] = test system: Parainfluenza-3 virus; conditions: read-out: Minimum inhibitory concentration Parainfluenza-3 virus; Vero; reduces virus-induced cytopathogenicity by 50%
[10] = test system: Reovirus-1; conditions: read-out: Minimum inhibitory concentration Reovirus-1; Vero; reduces virus-induced cytopathogenicity by 50%
[11] = test system: Sindbis virus; conditions: read-out: Minimum inhibitory concentration Sindbis virus; Vero; reduces virus-induced cytopathogenicity by 50%
[12] = test system: HIV-1; conditions: for anti-HIV activity in the presence of IlePyr: 200 and 500 μM IlePyr, in words

| Structure (SMILES) | EC50 [1] [µM] | EC50 [2] [µM] | EC50 [3] [µM] | EC50 [4] [µM] | EC50 [5] [µM] | EC50 [6] [µM] | EC50 [7] [µM] | EC50 [8] [µM] | EC50 [9] [µM] | EC50 [10] [µM] | EC50 [11] [µM] | anti-HIV activity in the presence of IlePyr [12] | EC50 ([12]; CEM cell cultures, presence of 200 and 500 μM of IlePyr) [µM] |
| --- | --- | --- | --- | --- | --- | --- | --- | --- | --- | --- | --- | --- | --- |
| NCC(N)=O [G-NH2, glycinamide] | 45 ± 7.1 | 37 ± 5.8 | > 2000 | > 2000 | > 2000 | > 2000 | > 2000 | > 2000 | > 2000 | > 2000 | > 2000 | fully preserved its anti-HIV activity | 35 to 43 |
| NCC(=O)N1CCC[C@H]1C(=O)NCC(N)=O [GPG-NH2, glycylprolylglycinamide] (H-Gly-Pro-Gly-NH2) | 50 | 42 ± 14 | > 400 | > 400 | > 400 | > 400 | > 400 | > 400 | > 400 | > 400 | > 400 | markedly lost its inhibitory activity |  |
